Data reported in US4177292A, “Novel 5H-benzocyclohepten-7-amines” (Roussel Uclaf, priority 1977, dated 1979).
Counter-ions that a name gives are not always drawn. Like-named read-outs stand apart in the source and are kept apart here.

Columns and labels:
[1] = tested on: uptake of 14C-5HT in synaptosomes; test: Inhibition of Serotonine uptake in vivo (synaptosomes prepared after intraperitoneal administration); conditions: Rattus norvegicus, ip, 5 mg/kg intraperitoneal, female rats 19 to 21 days old
Procedure: (§1) The inhibition of serotonine (5HT) uptake was measured in impure synaptosomes prepared from the entire brain of a female rat 19 to 21 days old using the technique of Kannengiesser et al [Biochemical Pharmacology, Vol. 22, (1973) p. 73].
The tested products were intraperitoneally administered to a groups of female rats 19 to 21 days old at doses of 5 mg/kg. After 1 hour or 24 hours, the brain was removed and synaptosomes were prepared and placed in an incubator in the presence of 14 C-5HT as indicated in the previous test.

Acute toxicity = conditions: mouse, in vivo, ip; mice, intraperitoneal, determined 48 hours later; read-out: DL50
Procedure: The DL50 dose which kills 50% of mice after intraperitoneal administration of the test compound was determined 48 hours later and the DL50 for the compounds is reported in Table III.

dogs = test: Anorexigenic activity; type: in vivo, dog; conditions: oral (gelules), 10 mg/kg, starved about 15 hours
Procedure: This activity was determined on dogs by the method of Adams et al [J. Pharm. Sci., Vol. 53 (1964), p. 1405] in which the animals received as food exclusively U.A.R. mash with a base of 800 g per day per dog. On the day of the test of a presumed anorexigenic agent, the daily individual ration of the dogs was divided into approximately equal small balls (15 to 20 g) which were offered to the dogs every 10 minutes for 8 hours. Normally the animals regularly accept the small balls successively when they are presented. […] The hourly number of refusal is determined in the animals treated with the same dose and is expressed as a percentage of the total hourly number of small balls presented per […]. At the start of the test, the animals had been starved for about 15 hours although they had drinking water available. They are deprived of water during the test. The test was effected with a group of 7 bastard dogs both male and female weighing between 11.4 and 14 kg (12.1 kg average) selected as a function of their response to a weak dose (5 mg/kg) of fenfluramine.

[2] = tested on: serotonine (5HT) uptake in synaptosomes; test: Inhibition of Serotonine uptake in vitro; type: biochemical; conditions: impure synaptosomes from entire brain of female rat 19 to 21 days old; 37° C., 5 minutes; 14C-5HT 10^-7 M; read-out: Inhibiting concentration IC50 of 14C-5HT uptake
Procedure: as §1

[3] = 1 hour, read-out: % inhibition of 14C-5HT uptake after 1 Hour
[4] = 24 hours, read-out: % inhibition of 14C-5HT uptake after 24 Hours

SMILES	inhibition at 5 mg/kg [1, 3]	inhibition at 5 mg/kg [1, 4]	LD50 at 48 h (Acute toxicity)	oral anorexigenic activity (refusal of food balls) (dogs)	IC50 [2]
CN(C)[C@H]1CCc2ccccc2[C@@H](Oc2ccc([N+](=O)[O-])cc2)C1 (relative stereo) [Example 1, fumarate of cis N,N-dimethyl-5-[4-nitrophenyloxy]-6,7,8,9-tetrahydro-5H-benzocycloheptene-7-amine]	58 ± 4%	67 ± 2%	100 mg/kg	important oral anorexigenic activity	340 nM
CN(C)[C@@H]1CCc2ccccc2[C@H](Oc2ccc(N)cc2)C1.Cl.Cl (relative stereo) [Example 2, cis N,N-dimethyl-5-[4-aminophenoxy]-6,7,8,9-tetrahydro-5H-benzocycloheptene-7-amine dihydrochloride]			200 mg/kg		14000 nM
CN(C)[C@@H]1CCc2ccccc2[C@H](Oc2ccc(C(F)(F)F)cc2)C1.Cl (relative stereo) [Example 3, cis N,N-dimethyl-5-[4-trifluoromethylphenoxy]-6,7,8,9-tetrahydro-5H-benzocycloheptene-7-amine hydrochloride]			150 mg/kg		760 nM
CN(C)[C@H]1CCc2ccccc2[C@H](Oc2ccc([N+](=O)[O-])cc2)C1.Cl (relative stereo) [Example 4, trans N,N-dimethyl-5-[4-nitrophenoxy]-6,7,8,9-tetrahydro-5H-benzocycloheptene-7-amine hydrochloride]	61 ± 2%	39 ± 4%	100 mg/kg		83 nM
CN(C)[C@@H]1CCc2ccccc2[C@H](Oc2ccccc2C(F)(F)F)C1.Cl (relative stereo) [Example 5, cis N,N-dimethyl-5-[2-trifluoromethylphenoxy]-6,7,8,9-tetrahydro-5H-benzocycloheptene-7-amine hydrochloride]			200 mg/kg		2300 nM
CN[C@@H]1CCc2ccccc2[C@H](Oc2ccc(C(F)(F)F)cc2)C1.Cl (relative stereo) [Example 6, cis N-methyl-5-[4-trifluoromethylphenoxy]-6,7,8,9-tetrahydro-5H-benzocycloheptene-7-amine hydrochloride]	41 ± 3%	61 ± 3%	400 mg/kg		1900 nM
CN(C)[C@@H]1CCc2ccccc2[C@H](Oc2ccc(Br)cc2)C1.Cl (relative stereo) [Example 7, cis N,N-dimethyl-5-[4-bromophenoxy]-6,7,8,9-tetrahydro-5H-benzocyclohepten-7-amine hydrochloride]	40 ± 3%	65 ± 2%	150 mg/kg		320 nM
CN(C)[C@@H]1CCc2ccccc2[C@H](Oc2ccccc2[N+](=O)[O-])C1.Cl (relative stereo) [Example 8, cis N,N-dimethyl-5-[2-nitrophenoxy]-6,7,8,9-tetrahydro-5H-benzocyclohepten-7-amine hydrochloride]			150 mg/kg		4000 nM
COc1ccccc1O[C@@H]1C[C@H](N(C)C)CCc2ccccc21 (relative stereo) [Example 10, cis N,N-dimethyl-5-[2-methoxyphenoxy]-6,7,8,9-tetrahydro-5H-benzocyclohepten-7-amine hydrochloride]					1300 nM
COc1ccc(O[C@@H]2C[C@H](N(C)C)CCc3ccccc32)cc1 (relative stereo) [Example 11, cis N,N-dimethyl-5-[4-methoxyphenoxy]-6,7,8,9-tetrahydro-5H-benzocyclohepten-7-amine hydrochloride]					1300 nM
CN(C)[C@H]1CCc2ccccc2[C@@H](Oc2ccc([N+](=O)[O-])c(C(F)(F)F)c2)C1 (relative stereo) [Example 17, cis-N,N-dimethyl-5-[4-nitro-3-trifluoromethylphenoxy]-6,7,8,9,-tetrahydro-5H-benzocyclohepten-7-amine]			> 400 mg/kg		950 nM
CN(C)[C@H]1CCc2ccc(Cl)cc2[C@H](Oc2ccc([N+](=O)[O-])cc2)C1.Cl (relative stereo) [Example 18, trans N,N-dimethyl-3-chloro-5-[4-nitrophenoxy]-6,7,8,9-tetrahydro-5H-benzocyclohepten-7-amine hydrochloride]			100 mg/kg		1500 nM
CN(C)[C@H]1CCc2ccc(Cl)cc2[C@@H](Oc2ccc([N+](=O)[O-])cc2)C1 (relative stereo) [Example 19, cis N,N-dimethyl-3-chloro-5-[4-nitrophenoxy]-6,7,8,9-tetrahydro-5H-benzocyclohepten-7-amino hydrochloride]			> 200 mg/kg		7100 nM
